Here are results for two molecules from patent US9060537B2, “Method for enhancing rebaudioside D solubility in water” (PEPSICO, INC., priority 2012, dated 2015).

Data set [1] in a line: Modified Reb D solubility in water. It counts as physicochemical.
The conditions of data set [2]: co-crystallization of quercetin with caffeine, mass ratio 2:1; cited from earlier work.
For data set [3] the following is noted: co-crystallization of quercetin with caffeine, mass ratio 2:1; cited from earlier work. The source holds these as a separate data set.

Each structure is given as a SMILES string.

Turning to `C=C1C[C@@]23CC[C@H]4[C@@](C)(CCC[C@@]4(C)C(=O)O[C@@H]4O[C@H](CO)[C@@H](O)[C@H](O)[C@H]4O[C@@H]4O[C@H](CO)[C@@H](O)[C@H](O)[C@H]4O)[C@@H]2CC[C@]1(O[C@@H]1O[C@H](CO)[C@@H](O)[C@H](O[C@@H]2O[C@H](CO)[C@@H](O)[C@H](O)[C@H]2O)[C@H]1O[C@@H]1O[C@H](CO)[C@@H](O)[C@H](O)[C@H]1O)C3` [Control, Rebaudioside D], the “Solubility (23° C.) (ppm)” value in data set [1] (in water, 23° C.) was found to be 350 ppm. Further, in data set [1] (spray dried without enhancer or stabilizer), the “solubility of the Reb D after spray drying the clear Reb D solution to a fine powder” value amounted to 1500 ppm. This molecule also displayed a solubility in water in data set [1] (water at 23° C. / room temperature, untreated Reb D or powders as worded) of 300 ppm. For the same molecule, the “maximum solubility in heated water” value in data set [1] (water heated above 70° C., typically 80 to 100° C.) was found to be 2.5 wt %.

`O=c1c(O)c(-c2ccc(O)c(O)c2)oc2cc(O)cc(O)c12` [quercetin]: the bioavailability increase in data set [2] is 10 fold. For the same molecule, the solubility increase in data set [3] is recorded as 14 fold.
